Source: patent US20040253308A1, “Surface-treated modafinil particles” (Barr Laboratories, Inc., priority 2003, published 2004)

Experiments:
monkeys = details: single administration (Duteil et al.); cited from earlier work
[1] = Particle size determination (Hiac/Royco system); format: physicochemical; details: production lot used for FIG. 1 tablets
Method: Particle size can be determined by various methods known to those in the art, such as, but not limited to, laser particle size detectors. Particle size, as defined herein, is determined using a Hiac/Royco system, which includes the Model 9064 particle counter and the Model 3000A liquid syringe sampler (11801 Tech Road, Silver Spring, Md. 20904, U.S.A.).
Particle size was determined using a Hiac/Royco system, which includes the Model 9064 particle counter and the Model 3000A liquid syringe sampler (11801 Tech Road, Silver Spring, Md. 20904, U.S.A.). Samples were prepared in water saturated with modafinil. For each sample preparation, five consecutive readings were measured. The test was done in triplicate and the average was reported.

mice = details: single administration (Duteil et al.); cited from earlier work

NC(=O)C[S+]([O-])C(c1ccccc1)c1ccccc1 (stereo not shown) [modafinil, 2-(benzhydrylsulfinyl)acetamide]
nocturnal activity (monkeys): increased nocturnal activity
median particle size ([1]; pretreated modafinil particles): 148 μm
diameter exceeded by 5% of the total of pretreated modafinil particles [1]: 277 μm
locomotor activity (mice): increased locomotor activity
